Results from PMC8963254, “Effects of Lysine N-ζ-Methylation in Ultrashort Tetrabasic Lipopeptides (UTBLPs) on the Potentiation of Rifampicin, Novobiocin, and Niclosamide in Gram-Negative Bacteria” (Antibiotics, 2022).
In brackets after ≈: the same amount, converted by molar mass. Read-outs that look alike come from different tables or passages of the source. Residues, ends and D or L forms follow the SMILES beside them. *: point of attachment. Octanoyl = CCCCCCCC(=O)*

Key:
[1] = tested on: E. coli ATCC 25922; assay type: cell-based, Escherichia coli; details: ATCC 25922, 18 h
Procedure: (§1) The in vitro antibacterial activity of the UTBLPs was assessed against wild-type and clinically isolated bacterial strains. To obtain the MIC of the compounds, the microbroth dilution susceptibility assay was performed according to the Clinical and Laboratory Standards Institute (CLSI, Wayne, PA, USA) guidelines and as previously described. Briefly, the compounds at varying concentrations were incubated with bacterial inoculum (5 × 10^5 CFU/mL final concentration) at 37 °C for 18 h. Growth in the form of turbidity was confirmed using an EMax Plus microplate reader (Molecular Devices, San Jose, CA, USA) at 590 nm.

[2] = tested on: MRSA ATCC 33592; assay type: cell-based, Staphylococcus aureus; details: ATCC 33592, 18 h
Procedure: as §1

[3] = tested on: S. aureus ATCC 29213; assay type: cell-based, Staphylococcus aureus; details: ATCC 29213, 18 h
Procedure: as §1

[4] = tested on: E. faecalis ATCC 29212; assay type: cell-based, Enterococcus faecalis; details: ATCC 29212, 18 h
Procedure: as §1

[5] = tested on: E. faecium ATCC 27270; assay type: cell-based, Enterococcus faecium; details: ATCC 27270, 18 h
Procedure: as §1

[6] = tested on: P. aeruginosa PA259-96196; experiment: microbe, parasite or virus in culture; assay type: cell-based, Pseudomonas aeruginosa; details: PA259-96196, 18 h
How it was run: (§2)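 Turbidity at 590 nm defined growth, from which the MIC was taken. Cultures at a final density of 5 × 10^5 CFU/mL were exposed to a range of compound levels at 37 °C for 18 h in a CLSI-based microdilution format.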

[7] = tested on: P. aeruginosa PA262-101856; experiment: microbe, parasite or virus in culture; assay type: cell-based, Pseudomonas aeruginosa; details: PA262-101856, 18 h
How it was run: as §2

[8] = tested on: MRSE 61589; assay type: cell-based, Staphylococcus epidermidis; details: 61589, 18 h
Procedure: as §1

[9] = tested on: MSSE 81388; assay type: cell-based, Staphylococcus epidermidis; details: 18 h
Procedure: as §1

[10] = tested on: E. coli 94393; assay type: cell-based, Escherichia coli; details: for MICUTBLP: UTBLP alone
How it was run: (§3)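 Checkerboard synergy assay: antibiotic and OMP combined at varying concentrations with 5 × 10^5 CFU/mL inoculum (final), 37 °C, 18 h; growth read as turbidity at 590 nm. FICI = sum of FICs (MIC in combination / MIC alone); ≤0.5 synergistic, 0.5–4 additive, >4 antagonistic.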

[11] = tested on: E. coli ATCC 25922; assay type: cell-based, Escherichia coli; details: for MICUTBLP: UTBLP alone
How it was run: as §3

[12] = tested on: E. cloacae 118564; assay type: cell-based, Enterobacter cloacae; details: for MICUTBLP: UTBLP alone
How it was run: as §3

[13] = tested on: K. pneumoniae 113250; assay type: cell-based, Klebsiella pneumoniae; details: for MICUTBLP: UTBLP alone
How it was run: as §3

[14] = tested on: MRSA ATCC 33592; assay type: cell-based, Staphylococcus aureus
How it was run: as §3

[15] = tested on: S. aureus ATCC 29213; assay type: cell-based, Staphylococcus aureus
How it was run: as §3

[16] = tested on: E. faecium ATCC 27270; assay type: cell-based, Enterococcus faecium
How it was run: as §3

[17] = UTBLP in combination with novobiocin
[18] = UTBLP in combination with rifampicin
[19] = novobiocin in combination with the UTBLP
[20] = rifampicin in combination with the UTBLP
[21] = UTBLP in combination with chloramphenicol
[22] = chloramphenicol in combination with the UTBLP
[23] = UTBLP alone, plate with chloramphenicol

- MIC [1]: 64 µg/mL (≈ 70.3 µM)
- MIC [2]: 64 µg/mL (≈ 70.3 µM)
- MIC [3]: 64 µg/mL (≈ 70.3 µM)
- MIC [4]: 32 µg/mL (≈ 35.2 µM)
- MIC [5]: 32 µg/mL (≈ 35.2 µM)
- MIC [6]: 128 µg/mL (≈ 141 µM)
- MIC [7]: > 128 µg/mL
- MIC [8]: 8 µg/mL (≈ 8.79 µM)
- MIC [9]: 16 µg/mL (≈ 17.6 µM)
- MICUTBLP ([10]; plate with novobiocin): 32 µg/mL
- MICUTBLP ([10]; plate with rifampicin): 32 µg/mL
- MICUTBLP [MICcombo] [10, 17]: 1 µg/mL
- MICUTBLP [MICcombo] [10, 18]: 4 µg/mL
- MICantibiotic [MICcombo] [10, 19]: 2 µg/mL
- MICantibiotic [MICcombo] [10, 20]: 0.125 µg/mL
- MICUTBLP ([11]; plate with chloramphenicol): 64 µg/mL
- MICUTBLP ([11]; plate with niclosamide): 64 µg/mL
- MICUTBLP ([11]; plate with novobiocin): 64 µg/mL
- MICUTBLP ([11]; plate with rifampicin): 64 µg/mL
- MICUTBLP [MICcombo] [11, 21]: 16 µg/mL
- MICUTBLP [MICcombo] ([11]; UTBLP in combination with niclosamide): 0.5 µg/mL
- MICUTBLP [MICcombo] [11, 17]: 1 µg/mL
- MICUTBLP [MICcombo] [11, 18]: 2 µg/mL
- MICantibiotic [MICcombo] [11, 22]: 0.25 µg/mL
- MICantibiotic [MICcombo] ([11]; niclosamide in combination with the UTBLP): 2 µg/mL
- MICantibiotic [MICcombo] [11, 19]: 0.5 µg/mL
- MICantibiotic [MICcombo] [11, 20]: 0.063 µg/mL
- MICUTBLP ([12]; plate with novobiocin): > 128 µg/mL
- MICUTBLP ([12]; plate with rifampicin): > 128 µg/mL
- MICUTBLP [MICcombo] [12, 17]: 16 µg/mL
- MICUTBLP [MICcombo] [12, 18]: 8 µg/mL
- MICantibiotic [MICcombo] [12, 19]: 0.5 µg/mL
- MICantibiotic [MICcombo] [12, 20]: 0.5 µg/mL
- MICUTBLP ([13]; plate with novobiocin): > 128 µg/mL
- MICUTBLP ([13]; plate with rifampicin): > 128 µg/mL
- MICUTBLP [MICcombo] [13, 17]: 16 µg/mL
- MICUTBLP [MICcombo] [13, 18]: 8 µg/mL
- MICantibiotic [MICcombo] [13, 19]: 1 µg/mL
- MICantibiotic [MICcombo] [13, 20]: 0.5 µg/mL
- MICUTBLP [14, 23]: 64 µg/mL
- MICUTBLP [MICcombo] [14, 21]: 0.25 µg/mL
- MICchloramphenicol [MICcombo] [14, 22]: 64 µg/mL
- MICUTBLP [15, 23]: 64 µg/mL
- MICUTBLP [MICcombo] [15, 21]: 16 µg/mL
- MICchloramphenicol [MICcombo] [15, 22]: 2 µg/mL
- MICUTBLP [16, 23]: 32 µg/mL
- MICUTBLP [MICcombo] [16, 21]: 8 µg/mL
- MICchloramphenicol [MICcombo] [16, 22]: 2 µg/mL
SMILES: CCCCCCCC(=O)NCCCC[C@H](NC(=O)CCCCCCC)C(=O)N[C@@H](CCCCN)C(=O)N[C@@H](CCCCN)C(=O)N[C@@H](CCCCN)C(=O)N[C@@H](CCCCN)C(N)=O [UTBLP 5] (Octanoyl-K(Octanoyl)KKKK-NH2)
- Interpretation ([10]; UTBLP + novobiocin): Synergy (FICI ≤ 0.5 is synergistic)
- Interpretation ([10]; UTBLP + rifampicin): Synergy (FICI ≤ 0.5 is synergistic)
- Interpretation ([11]; UTBLP + chloramphenicol): Synergy (FICI ≤ 0.5 is synergistic)
- Interpretation ([11]; UTBLP + niclosamide): Synergy (FICI ≤ 0.5 is synergistic)
- Interpretation ([11]; UTBLP + novobiocin): Synergy (FICI ≤ 0.5 is synergistic)
- Interpretation ([11]; UTBLP + rifampicin): Synergy (FICI ≤ 0.5 is synergistic)
- Interpretation ([12]; UTBLP + novobiocin): Synergy (FICI ≤ 0.5 is synergistic)
- Interpretation ([12]; UTBLP + rifampicin): Synergy (FICI ≤ 0.5 is synergistic)
- Interpretation ([13]; UTBLP + novobiocin): Synergy (FICI ≤ 0.5 is synergistic)
- Interpretation ([13]; UTBLP + rifampicin): Synergy (FICI ≤ 0.5 is synergistic)
- Interpretation ([14]; UTBLP + chloramphenicol): Additive (0.5 < x ≤ 4 is additive)
- Interpretation ([16]; UTBLP + chloramphenicol): Additive (0.5 < x ≤ 4 is additive)
